Test results as given in US12622914B2, “Pharmaceutical rectal suppository compositions of 6-thioguanine, methods of treatment and/or methods of manufacturing” (Douglas Pharmaceuticals Ltd., priority 2023, dated 2026).

Experiments:
[1] = test system: induced colitis; conditions: mice lacking the enzyme HPRT, treatment with 6-thioguanine; cited from earlier work
[2] = Particle size distribution (Malvern Mastersizer 3000); format: physicochemical; conditions: dispersed in n-heptane containing 0.1% span 80 pre-saturated with 6-thioguanine
Experimental: The particles size distribution of the API alone and in the rectal suppository formulations was measured using a Malvern Mastersizer 3000 (Hydro SM). The samples were dispersed in n-heptane containing 0.1% span 80 pre-saturated with 6-thioguanine (to reduce any dissolution of the 6-thioguanine particles in the samples).

D10 [2] [μm]	D50 [2] [μm]	D90 [2] [μm]	D10 ([2]; listed as Batch C) [μm]	D50 ([2]; listed as Batch C) [μm]	D90 ([2]; listed as Batch C) [μm]	SMILES	reduction in induced colitis [1]
–	–	–	–	–	–	Nc1nc(=S)c2[nH]cnc2[nH]1 [6-thioguanine, 2-amino-1H-purine-6(7H)-thione]	rapid and appreciable reduction in induced colitis
5.3	69.1	267.0	–	–	–	Nc1nc(=S)c2[nH]cnc2[nH]1 [B, 6-thioguanine]	–
5.4	66.8	261.0	–	–	–	Nc1nc(=S)c2[nH]cnc2[nH]1 [Sample A, 6-thioguanine]	–
2.9	9.0	151.0	2.9	9.0	151.0	Nc1nc(=S)c2[nH]cnc2[nH]1 [Sample C, 6-thioguanine]	–
